In ChEMBL document CHEMBL6153038, “Uncovering Hericenones from the Fruiting Bodies of Hericium erinaceus through Interdisciplinary Collaboration” (J Nat Prod, 2025):

Legend:
N2a [1] = assay: Neuroprotective activity against thapsigargin-induced ER stress in mouse Neuro2a cells assessed as cell viability at 10 to 100 ug/ml pre-incubated for 2 hrs followed by thapsigargin addition for 22 hrs by MTT assay; type: functional, cell-based; details: dose 10-100 µg/ml, time 24.0 hrs
N2a [2] = assay: Neuroprotective activity against tunicamycin-induced ER stress in mouse Neuro2a cells assessed as cell viability at 10 to 100 ug/ml pre-incubated for 2 hrs followed by tunicamycin addition for 22 hrs by MTT assay; type: functional, cell-based; details: dose 10-100 µg/ml, time 24.0 hrs

| SMILES | Activity (N2a [1]) | Activity (N2a [2]) |
| --- | --- | --- |
| CCCCCCCCCCCCCCCC(=O)OCc1cc(OC)c(C[C@H]2O[C@]2(C)CC(=O)C=C(C)C)c(O)c1C=O (racemic) | Not active; No Protective Activity | Not active; No Protective Activity |
| CCCCCCCCCCCCCCCC(=O)OCc1cc(OC)c2c(c1C=O)OC(/C(C)=C/C(=O)C=C(C)C)C2 (racemic) | Active; Significant Protective Activity | Active; Significant Protective Activity |
| CCCCCCCCCCCCCCCC(=O)OCc1cc(OC)c2c(c1C=O)OC(/C(C)=C\C(=O)C=C(C)C)C2 (racemic) | Active; Significant Protective Activity | Active; Significant Protective Activity |
